Converted amounts (≈) assume the structure as drawn.
Key:
Format in all cases: cell-based
clinical isolate QM006 [1] = experiment: Rapid AST: MIC calculated from microphotographs (biomass imaging, 0 to 4 hours) of isolate recovered from blood culture flask below 0.5 McFarland
Method: (§1) Dilutions of two different bacterial clinical isolates were seeded into an aerobic blood culture flask (Bactec, Becton Dickinson) at an estimated concentration of either 1 or 10 CFU/ml blood. Before seeding, the BCF had been filled with human blood from healthy donors. Aliquots from the dilution series were plated on agar and grown over night for viable count. Target concentration was 10 or 100 CFU seeded in 0.5 ml per BCF, corresponding to approximately 1 or 10 CFU/ml blood. The seeded BCF were allowed to incubate for 8 hours at 35° C. and a 5 ml aliquot were taken for subsequent AST. Another aliquot from the same BCF was used for determination of viable count after 8 hours' growth in the BCF.
(§2) A 5 ml aliquot of the cultured clinical isolate from the blood culture flask was filtered using a 100 μm filter to remove resin particles from the culture medium. The sample was thereafter mixed with a 10 ml of lysis buffer capable of selectively lysing any non-microbial cells present in the sample, and incubated for a sufficient amount of time for the non-microbial cells to be lysed. The resulting lysate was filtered through a 0.2 μm filter. Liquid components of the lysate (including components of the lysed non-microbial cells) passed through the filter, whereas microbial cells present in the sample were retained on the filter.
(§3) The retained microbial cells were re-suspended in liquid Mueller Hinton broth medium to form a microbial culture preparation, by back-flushing the filter with culture medium (i.e. flowing the culture medium in the opposite direction to filtration). 100 μl aliquots of the microbial culture preparation were then dispensed into wells of a microtiter plate.
(§4) The wells of the microtiter plate contained between 5 and 13 different concentrations of an antibiotic and different antibiotics. A negative control (i.e. comprising a blood sample with no seeded bacteria) and a positive control sample (i.e. an aliquot of the sample from a seeded BCF but into a well with no antimicrobial agent) were also set up at this stage.
(§5) Focus was performed on each inoculated well and each well was read at intervals of 1 hour. A total of 5 images were taken at time points from 0 to 4 hours after the initiation of the AST assay. The degree of microbial growth in each growth condition was monitored by imaging, by measuring the amount of microbial biomass in each well.
(§6) Microphotographs from the different wells were analysed to generate a numerical value of the biomass in the well and this was used as a marker of growth. From the growth a minimal inhibitory concentration was determined and compared to MIC obtained using a reference method, broth micro-dilution. […] A sample was determined to Pass (P) if within +/−1 two-fold dilution from the reference MIC.

clinical isolate QM171 [2] = experiment: as above
Method: as §1, §2, §3, §4, §5, §6

clinical isolate QM006 [3] = experiment: Reference MIC, broth micro-dilution (ISO 20776, turbidity after 16-20 hours); conditions: isolate QM006, broth micro-dilution from 0.5 McFarland, 16-20 hours growth
clinical isolate QM171 [4] = experiment: as above; conditions: isolate QM171, broth micro-dilution from 0.5 McFarland, 16-20 hours growth
Method: as §6

[5] = test system: gentamicin resistant E. coli strain; experiment: AST by imaging at different starting titers; conditions: starting concentration 2×10^6 CFU/ml (Lane B) vs 3×10^5 CFU/ml (Lane A), four hours growth
Description: E. coli grown in blood+BCF media were recovered via a clean-up procedure to remove blood components and only retain viable bacteria in MH-media. Adjustment of the recovered bacteria were made to ensure different titers are used at start of the AST. AST assays were set up to a starting concentration of 3×10^5 CFU/ml (Lane A) and 2×10^6 CFU/ml (Lane B) of a gentamicin resistant E. coli strain. Aliquots of the recovered bacteria were dispensed into a microtiter plate with freeze dried antibiotics at varying concentrations and allowed to grow for four hours before imaging. Shown are microphotographs from a series of different concentration of antibiotics in two-fold dilutions ranging from 64 mg/l to 0.0625 mg/l of gentamicin.

[6] = isolate QM006, experiment repeat no. 1, imaging after 4 h
[7] = isolate QM006, experiment repeat no. 2, imaging after 4 h
[8] = isolate QM006, experiment repeat no. 3, imaging after 4 h
[9] = isolate QM006, experiment repeat no. 4, imaging after 4 h
[10] = isolate QM006, experiment repeat no. 5, imaging after 4 h
[11] = isolate QM006, experiment repeat no. 6, imaging after 4 h
[12] = isolate QM006, experiment repeat no. 7, imaging after 4 h
[13] = isolate QM006, experiment repeat no. 8, imaging after 4 h
[14] = isolate QM006, experiment repeat no. 9, imaging after 4 h
[15] = isolate QM171, experiment repeat no. 1, imaging after 4 h
[16] = isolate QM171, experiment repeat no. 2, imaging after 4 h
[17] = isolate QM171, experiment repeat no. 3, imaging after 4 h
[18] = isolate QM171, experiment repeat no. 4, imaging after 4 h
[19] = isolate QM171, experiment repeat no. 5, imaging after 4 h
[20] = isolate QM171, experiment repeat no. 6, imaging after 4 h
[21] = isolate QM171, experiment repeat no. 7, imaging after 4 h

Molecule	MIC calculated from microphotographs (clinical isolate QM006 [1]; [6]) [µg/mL]	MIC calculated from microphotographs (clinical isolate QM006 [1]; [7]) [µg/mL]	MIC calculated from microphotographs (clinical isolate QM006 [1]; [8]) [µg/mL]	MIC calculated from microphotographs (clinical isolate QM006 [1]; [9]) [µg/mL]	MIC calculated from microphotographs (clinical isolate QM006 [1]; [10]) [µg/mL]	MIC calculated from microphotographs (clinical isolate QM006 [1]; [11]) [µg/mL]	MIC calculated from microphotographs (clinical isolate QM006 [1]; [12]) [µg/mL]	MIC calculated from microphotographs (clinical isolate QM006 [1]; [13]) [µg/mL]	MIC calculated from microphotographs (clinical isolate QM006 [1]; [14]) [µg/mL]	MIC calculated from microphotographs (clinical isolate QM171 [2]; [15]) [µg/mL]	MIC calculated from microphotographs (clinical isolate QM171 [2]; [16]) [µg/mL]	MIC calculated from microphotographs (clinical isolate QM171 [2]; [17]) [µg/mL]	MIC calculated from microphotographs (clinical isolate QM171 [2]; [18]) [µg/mL]	MIC calculated from microphotographs (clinical isolate QM171 [2]; [19]) [µg/mL]	MIC calculated from microphotographs (clinical isolate QM171 [2]; [20]) [µg/mL]	MIC calculated from microphotographs (clinical isolate QM171 [2]; [21]) [µg/mL]	Reference MIC (clinical isolate QM006 [3]) [µg/mL]	Reference MIC (clinical isolate QM171 [4]) [µg/mL]	MIC value at higher bacterial titer compared with lower titer [5]
CO/N=C(\C(=O)N[C@@H]1C(=O)N2C(C(=O)O)=C(COC(C)=O)CS[C@H]12)c1csc(N)n1 [Cefotaxime]	> 8	> 16	> 16	> 16	> 16	> 16	> 16	> 16	> 16	8 (≈ 17.6 µM)	> 16	> 16	> 16	> 16	16 (≈ 35.1 µM)	16 (≈ 35.1 µM)	> 8	> 8	–
CC(C)(O/N=C(\C(=O)N[C@@H]1C(=O)N2C(C(=O)[O-])=C(C[n+]3ccccc3)CS[C@H]12)c1csc(N)n1)C(=O)O [Ceftazidime]	8 (≈ 14.6 µM)	16 (≈ 29.3 µM)	8 (≈ 14.6 µM)	8 (≈ 14.6 µM)	8 (≈ 14.6 µM)	16 (≈ 29.3 µM)	8 (≈ 14.6 µM)	16 (≈ 29.3 µM)	8 (≈ 14.6 µM)	2 (≈ 3.66 µM)	2 (≈ 3.66 µM)	2 (≈ 3.66 µM)	2 (≈ 3.66 µM)	2 (≈ 3.66 µM)	2 (≈ 3.66 µM)	1 (≈ 1.83 µM)	16	2	–
C[C@@H](O)[C@H]1C(=O)N2C(C(=O)O)=C(S[C@@H]3CN[C@H](C(=O)N(C)C)C3)[C@H](C)[C@H]12 [Meropenem]	≤ 0.5	≤ 0.5	≤ 0.5	1 (≈ 2.61 µM)	≤ 0.5	≤ 0.5	≤ 0.5	≤ 0.5	≤ 0.5	≤ 0.5	≤ 0.5	≤ 0.5	≤ 0.5	≤ 0.5	≤ 0.5	≤ 0.5	≤ 0.5	1	–
Gentamicin	16	16	16	16	16	16	16	16	16	0.5	0.5	0.5	0.5	0.5	0.5	0.25	> 16	≤ 0.5	higher MIC value
